Experimental data: PubChem BioAssay (NCI)
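The compound was tested at five concentrations on cells cultured in 96-well plates, with a 48-hour exposure period. At the TGI there is no net growth.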

Experiments:
Experiment in all cases: DTP human tumour cell line panel, 48 h
UACC-62 melanoma = system: UACC-62 melanoma
T-47D breast = system: T-47D breast
OVCAR-5 ovarian = system: OVCAR-5 ovarian
HT29 colon = system: HT29 colon
IGROV1 ovarian = system: IGROV1 ovarian
SW-620 colon = system: SW-620 colon
A549 NSCLC = system: A549 NSCLC
MALME-3M melanoma = system: MALME-3M melanoma
HCT-15 colon = system: HCT-15 colon
COLO 205 colon = system: COLO 205 colon
SNB-19 CNS = system: SNB-19 CNS
RXF 393 renal = system: RXF 393 renal
EKVX NSCLC = system: EKVX NSCLC
HCT-116 colon = system: HCT-116 colon
MCF7 breast = system: MCF7 breast
SN12C renal = system: SN12C renal
SK-MEL-5 melanoma = system: SK-MEL-5 melanoma
SK-OV-3 ovarian = system: SK-OV-3 ovarian
KM12 colon = system: KM12 colon
HOP-62 NSCLC = system: HOP-62 NSCLC

SMILES	TGI (UACC-62 melanoma)	TGI (T-47D breast)	TGI (OVCAR-5 ovarian)	TGI (HT29 colon)	TGI (IGROV1 ovarian)	TGI (SW-620 colon)	TGI (A549 NSCLC)	TGI (MALME-3M melanoma)	TGI (HCT-15 colon)	TGI (COLO 205 colon)	TGI (SNB-19 CNS)	TGI (RXF 393 renal)	TGI (EKVX NSCLC)	TGI (HCT-116 colon)	TGI (MCF7 breast)	TGI (SN12C renal)	TGI (SK-MEL-5 melanoma)	TGI (SK-OV-3 ovarian)	TGI (KM12 colon)	TGI (HOP-62 NSCLC)
O=C1/C(=C/c2ccco2)N=C(c2ccccc2)N1c1cc2cc(Sc3ccccc3)ccc2[nH]1	> 25 µM	> 25 µM	> 25 µM	> 25 µM	> 25 µM	> 25 µM	> 25 µM	> 25 µM	> 25 µM	> 25 µM	> 25 µM	> 25 µM	> 25 µM	> 25 µM	> 25 µM	> 25 µM				
N=C(N)SCc1cccc2c(=O)cc(-c3ccccc3)oc12	32.4 µM	15.9 µM	41.8 µM	24.8 µM	30.2 µM	> 39.3 µM	29 µM	27.2 µM	> 65.7 µM	27.3 µM	> 61.1 µM	19.5 µM	37.9 µM	19.7 µM	16.3 µM	25.9 µM	29.8 µM	30.5 µM	27.3 µM	44.8 µM
O=C(O)c1oc(C(=O)O)c(C(=O)O)c1C(=O)O	> 100 µM	> 100 µM	> 100 µM	> 100 µM	> 100 µM	> 100 µM	> 100 µM	> 100 µM	> 100 µM		> 100 µM	> 100 µM	> 100 µM	> 100 µM		> 100 µM	> 100 µM		> 100 µM	> 100 µM
COc1cccc(CC2Cc3ccccc3CC(=O)N2)c1 (stereo unspecified)	> 100 µM	> 100 µM	> 100 µM	> 100 µM	> 100 µM	> 100 µM	> 100 µM			> 100 µM	> 100 µM	> 100 µM	> 100 µM	> 100 µM	92 µM	> 100 µM	54.6 µM	> 100 µM	> 100 µM	72.5 µM
O=C1/C(=C/c2ccc(Cl)cc2)N=C(c2ccccc2)N1c1ccc(S(=O)(=O)Nc2nccs2)cc1	53.1 µM	75.2 µM	> 100 µM	56.3 µM		> 100 µM	> 100 µM	> 100 µM	> 100 µM	40.7 µM	> 100 µM	> 100 µM	> 100 µM	> 100 µM	82.9 µM	> 100 µM	66.6 µM	> 100 µM	> 100 µM	> 100 µM
CCCCC(=O)Oc1ccc2c(C)cc(=O)oc2c1	> 100 µM	> 100 µM	> 100 µM	> 100 µM	> 100 µM	> 100 µM	> 100 µM	> 100 µM		> 100 µM	> 100 µM	> 100 µM	> 100 µM	> 100 µM	> 100 µM	> 100 µM	> 100 µM		> 100 µM	> 100 µM
CC(C)NCCC(O)c1cc2ccccc2o1 (stereo unspecified)	> 100 µM	> 100 µM	> 100 µM	> 100 µM	> 100 µM	> 100 µM	> 100 µM	> 100 µM	> 100 µM	> 100 µM	> 100 µM	> 100 µM	> 100 µM	> 100 µM	> 100 µM	> 100 µM	> 100 µM	> 100 µM	> 100 µM	> 100 µM
CCOC(=O)C1=C(C)N(NC(N)=O)C2(O)CCCC(=O)C12C (stereo unspecified)	> 100 µM		> 100 µM	> 100 µM	> 100 µM	> 100 µM	> 100 µM	> 100 µM	> 100 µM	> 100 µM	> 100 µM	> 100 µM				> 100 µM	> 100 µM	> 100 µM	> 100 µM	
COc1ccc(Cc2nccc3cc(OC)c(OC)cc23)cc1OC	> 100 µM	> 100 µM	> 100 µM	> 100 µM	> 100 µM	> 100 µM	> 100 µM		> 100 µM	> 100 µM	> 100 µM		> 100 µM	> 100 µM	> 100 µM	> 100 µM	99.3 µM	> 100 µM	> 100 µM	> 100 µM
CCCCS(=O)(=O)Nc1ccc(Nc2c3ccccc3nc3ccccc23)c(OC)c1	7.48 µM		26.6 µM	6.37 µM	24.9 µM	14.2 µM	7.07 µM	7.99 µM	9.11 µM	20.2 µM	14.5 µM	11 µM	14.4 µM	8.11 µM	17.4 µM	5.77 µM	18.1 µM	16.9 µM	14.8 µM	10.7 µM
c1ccc(C[n+]2cccc(-c3cc4ccccc4[nH]3)c2)cc1	32.1 µM	> 100 µM	> 100 µM	> 100 µM	42.6 µM	> 100 µM	> 100 µM	34.1 µM	> 100 µM	28.8 µM	> 100 µM	> 100 µM	> 100 µM	> 100 µM	98.8 µM	42.6 µM	23.8 µM	> 100 µM	32 µM	96.4 µM
O=C(O)C12CCCC(CCC1)C2	> 100 µM		> 100 µM	> 100 µM	> 100 µM	> 100 µM	> 100 µM	> 100 µM	> 100 µM	> 100 µM	> 100 µM	> 100 µM	> 100 µM	> 100 µM		> 100 µM	> 100 µM	> 100 µM	> 100 µM	> 100 µM
NC(CCOCCP(=O)(O)CCOCCC(N)C(=O)O)C(=O)O (stereo unspecified)	> 100 µM	> 100 µM	> 100 µM	> 100 µM	> 100 µM	> 100 µM	> 100 µM		> 100 µM	> 100 µM	> 100 µM	> 100 µM	> 100 µM	> 100 µM	> 100 µM	> 100 µM	> 100 µM	> 100 µM	> 100 µM	
